Assay results taken from the NIST ThermoML archive (doi:10.1016/j.fluid.2018.04.007).
Numbers after ± are expanded uncertainties.

Columns and labels:
[1] = refractive index (Na D-line) (dimensionless); xn = mol fraction of the nth substance listed; conditions: 101 kPa, Liquid, Standard Abbe refractometry, x1 = 1
[2] = relative permittivity at various frequencies (dimensionless); xn = mol fraction of the nth substance listed; conditions: 101 kPa, Liquid, Frequency=1 MHz, Parallel plate capacitor, x1 = 1
[3] = 101 kPa, Liquid, Vibrating tube method
[4] = refractive index (Na D-line) (dimensionless); conditions: 101 kPa, Liquid, Standard Abbe refractometry
[5] = relative permittivity at various frequencies (dimensionless); conditions: 101 kPa, Liquid, Frequency=1 MHz, Parallel plate capacitor

Row | refractive index ([1]; 293.15 K) | refractive index ([1]; 298.15 K) | refractive index ([1]; 303.15 K) | relative permittivity ([2]; 293.15 K) | relative permittivity ([2]; 298.15 K) | relative permittivity ([2]; 303.15 K) | mass density ([3]; 293.15 K) [kg/m3] | mass density ([3]; 298.15 K) [kg/m3] | mass density ([3]; 303.15 K) [kg/m3] | refractive index ([4]; 293.15 K) | refractive index ([4]; 298.15 K) | refractive index ([4]; 303.15 K) | relative permittivity ([5]; 293.15 K) | relative permittivity ([5]; 298.15 K) | relative permittivity ([5]; 303.15 K) | Structure (SMILES)
1 | – | – | – | – | – | – | 791.63 ± 1.9 | 786.95 ± 1.9 | 782.22 ± 1.9 | 1.32862 ± 0.00033 | 1.32654 ± 0.00033 | 1.32439 ± 0.00033 | 33.569 ± 0.97 | 32.619 ± 0.96 | 31.652 ± 0.95 | CO [methanol]
2 | 1.32862 ± 0.00033 | 1.32654 ± 0.00033 | 1.32439 ± 0.00033 | 33.569 ± 0.97 | 32.619 ± 0.96 | 33.569 ± 0.97 | – | – | – | – | – | – | – | – | – | CO [methanol] + CCCCCCN
3 | 1.38514 ± 0.00033 | 1.38306 ± 0.00033 | 1.38102 ± 0.00033 | 21.15 ± 0.78 | 20.449 ± 0.77 | 19.784 ± 0.76 | – | – | – | – | – | – | – | – | – | CCCO [propan-1-ol] + CCCCCCN
4 | – | – | – | – | – | – | 803.66 ± 1.9 | 799.68 ± 1.9 | 795.66 ± 1.9 | 1.38514 ± 0.00033 | 1.38306 ± 0.00033 | 1.38102 ± 0.00033 | 21.15 ± 0.78 | 20.449 ± 0.77 | 19.784 ± 0.76 | CCCO [propan-1-ol]

Further lines, the molecule ahead of its results:

Row | Structure (SMILES) | refractive index ([1]; 293.15 K) | refractive index ([1]; 298.15 K) | refractive index ([1]; 303.15 K) | relative permittivity ([2]; 293.15 K) | relative permittivity ([2]; 298.15 K) | relative permittivity ([2]; 303.15 K) | mass density ([3]; 293.15 K) [kg/m3] | mass density ([3]; 298.15 K) [kg/m3] | mass density ([3]; 303.15 K) [kg/m3] | refractive index ([4]; 293.15 K) | refractive index ([4]; 298.15 K) | refractive index ([4]; 303.15 K) | relative permittivity ([5]; 293.15 K) | relative permittivity ([5]; 298.15 K) | relative permittivity ([5]; 303.15 K)
5 | CCCCCCCO [heptan-1-ol] + CCCCCCN | 1.42425 ± 0.00033 | 1.42235 ± 0.00033 | 1.42047 ± 0.00033 | 12.019 ± 0.6 | 11.504 ± 0.59 | 11.014 ± 0.57 | – | – | – | – | – | – | – | – | –
6 | CCCCCO [pentan-1-ol] | – | – | – | – | – | – | 814.66 ± 2 | 811.03 ± 1.9 | 807.35 ± 1.9 | 1.40985 ± 0.00033 | 1.40793 ± 0.00033 | 1.4059 ± 0.00033 | 15.701 ± 0.68 | 15.102 ± 0.67 | 14.536 ± 0.65
7 | CCCCCO [pentan-1-ol] + CCCCCCN | 1.40985 ± 0.00033 | 1.40793 ± 0.00033 | 1.4059 ± 0.00033 | 15.701 ± 0.68 | 15.102 ± 0.67 | 14.536 ± 0.65 | – | – | – | – | – | – | – | – | –
8 | CCCCO [butan-1-ol] | – | – | – | – | – | – | 809.85 ± 1.9 | 806.06 ± 1.9 | 802.22 ± 1.9 | 1.39931 ± 0.00033 | 1.39733 ± 0.00033 | 1.39529 ± 0.00033 | 18.192 ± 0.73 | 17.545 ± 0.71 | 16.933 ± 0.7
9 | CCCCCCN [1-hexanamine] | – | – | – | – | – | – | 764.43 ± 1.8 | 760.19 ± 1.8 | 755.9 ± 1.8 | 1.41808 ± 0.00033 | 1.41563 ± 0.00033 | 1.41321 ± 0.00033 | 3.964 ± 0.37 | 3.904 ± 0.37 | 3.846 ± 0.36
10 | CCCCO [butan-1-ol] + CCCCCCN | 1.39931 ± 0.00033 | 1.39733 ± 0.00033 | 1.39529 ± 0.00033 | 18.192 ± 0.73 | 17.545 ± 0.71 | 16.933 ± 0.7 | – | – | – | – | – | – | – | – | –
11 | CCCCCCCO [heptan-1-ol] | – | – | – | – | – | – | 822.37 ± 2 | 818.9 ± 2 | 815.37 ± 2 | 1.42425 ± 0.00033 | 1.42235 ± 0.00033 | 1.42047 ± 0.00033 | 12.019 ± 0.6 | 11.504 ± 0.59 | 11.014 ± 0.57
